Reference: patent publication US20010011084A1, “USE OF ESTROGEN TO MODIFY THE AMOUNT OF SEROTONIN TRANSPORTER OR ITS MRNA” (priority 1996, published 2001)

Columns and labels:
[1] = test system: luteinizing hormone (LH); assay: Plasma r-LH in trunk blood by radioimmunoassay; type: in vivo, rat; settings: presumptive proestrus, OVX rats, 10 μg s.c., mean±sem, n=7
[2] = test system: uterine horns; assay: Examination of the uterine horns; type: in vivo, rat; settings: OVX rats, 10 μg s.c., next day
[3] = 10 μg EB s.c., for up to 30 h in ovariectomized rats; cited from earlier work

C[C@]12CC[C@@H]3c4ccc(OC(=O)c5ccccc5)cc4CC[C@H]3[C@@H]1CC[C@@H]2O [EB, estradiol benzoate]
Plasma r-LH levels [1]: 7.5 ± 3.1 ng/mL | uterine horns [2]: markedly distended with fluid | blood levels of E2 [3]: 100-120 pg E2/ml
